How the values were obtained:
ERRβ = target: T1, ERRβ (Homo sapiens, UniProt O95718); assay: ThermoFluor thermal shift assay, ERRβ; type: binding; details: 100 μM test compound; 0.1 mg/mL protein, 25 mM HEPES pH 8.0; Tm free protein 47.5 °C; read-out: ΔTm, thermal stabilization of ERRβ
T1 sequence (O95718 208-432 limits assumed): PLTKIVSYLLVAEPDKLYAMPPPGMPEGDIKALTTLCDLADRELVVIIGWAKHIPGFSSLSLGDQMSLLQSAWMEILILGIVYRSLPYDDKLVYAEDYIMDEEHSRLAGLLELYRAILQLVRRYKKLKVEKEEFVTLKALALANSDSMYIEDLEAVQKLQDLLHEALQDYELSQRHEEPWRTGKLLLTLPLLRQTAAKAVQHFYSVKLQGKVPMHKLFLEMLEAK

[1] = target: T2, ligand binding domain of ERRγ (Homo sapiens, UniProt P62508); assay: ThermoFluor thermal shift assay, ERRγ ligand binding domain; details: 0.1 mg/mL protein, 25 mM HEPES pH 8.0, Tm free protein 49.6 °C
T2 construct: 6His; made in house; host or cells: E. coli BL21(DE3)
T2 sequence (P62508 229-458): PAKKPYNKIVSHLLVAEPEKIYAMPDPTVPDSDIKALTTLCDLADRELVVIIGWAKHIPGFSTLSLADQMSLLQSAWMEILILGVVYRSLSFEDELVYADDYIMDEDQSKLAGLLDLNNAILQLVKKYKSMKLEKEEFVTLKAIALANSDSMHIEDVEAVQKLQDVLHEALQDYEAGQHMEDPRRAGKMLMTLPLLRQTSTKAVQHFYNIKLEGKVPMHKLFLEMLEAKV
Procedure: The vector was in E. coli BL21(DE3) and cultured in Minimal media (M9) at 37° C. to an OD595 0.6-0.8, followed by induction at 15° C. with 0.4 mM IPTG for 20 hours. The next day, the culture was harvested and lysed in buffer A (Buffer A: 20 mM Tris-HCl, pH 7.5, 0.4 M NaCl and 5 mM Imidazole) using an Emulsiflex-C5 french press (Avestin). Lysates were spun at 40,000×g for 45 minutes to remove insoluble material. The clarified lysate was applied on a Ni-NTA column and eluted with a linear gradient of imidazole. The protein was further purified by applying the eluent on a Superdex 200 HR 10/30 column (Amersham Pharmacia Biotech) equilibrated with Buffer B (Buffer B: 20 mM Tris-HCl pH 7.5, 0.2M NaCl, 1 mM EDTA and 1 mM DTT). […] Fractions were pulled and concentrated to 4 mg/ml and frozen in liquid nitrogen and stored at −80° C.
The ligand binding domain of ERRγ was screened against a library of known estrogen activators and a generic drug library using ThermoFluor®. ThermoFluor® is a miniaturized thermal shift assay, that has been developed for HTS applications; as a secondary assay for confirmation and characterization of hits; and as a functional assay to characterize orphan proteins. ThermoFluor® exploits the well-described phenomenon of ligand induced stabilization of macromolecules. Ligand binding energy adds directly to the ground state energy of a macromolecule and results in increased thermal stability. The degree of stabilization is proportional to the binding affinity of the ligand for the macromolecule.
Assay plates were prepared by dispensing 2 μL of a protein-dye solution and 2 μL of the test compound in a 384-well plate. […] Finally 1 μL of mineral oil was dispensed on top to prevent evaporation during the high throughput screen (HTS). ThermoFluor® is an HTS assay that measures protein unfolding based on fluorescence detection of the denatured form of the protein. The reporter for the protein unfolding event is the environmentally sensitive dye ANS that is incorporated in the screening buffer. During a typical experiment the 384-well plate is heated at a ramping rate of 1° C./min and the thermal unfolding of the protein is monitored at 1° C. intervals by measuring fluorescence changes detected through a CCD camera. Captured images are integrated and a melting curve is generated that relates fluorescence to fraction of unfolded protein as a function of temperature. […] Hits were identified from the screen by measuring an increase in the melting temperature of the protein.
In order to estimate binding affinities, it was taken into account that the oligomeric state of ERRγ which is a dimer (N2), and that of a single ligand (Lf) can interact per monomer subunit with equal affinity. The melting curve for such a system is described by the following three equilibria:
To compare dissociation constants at a common reference temperature, Tref, the following equation was used: […]
In the thermodynamic treatment of the data the following assumptions were made: i) the small ligand interacts only with the folded state of the protein, ii) the reactions are reversible; iii) the unfolding protein reaction is a two-state process and iv) ideal dilute solutions are being used (specific activity for protein and ligands is equal to 1).

ERα = target: T3, ERα (Homo sapiens, UniProt P03372); assay: ThermoFluor thermal shift assay, ERα; type: binding
T3 sequence (P03372 1-595): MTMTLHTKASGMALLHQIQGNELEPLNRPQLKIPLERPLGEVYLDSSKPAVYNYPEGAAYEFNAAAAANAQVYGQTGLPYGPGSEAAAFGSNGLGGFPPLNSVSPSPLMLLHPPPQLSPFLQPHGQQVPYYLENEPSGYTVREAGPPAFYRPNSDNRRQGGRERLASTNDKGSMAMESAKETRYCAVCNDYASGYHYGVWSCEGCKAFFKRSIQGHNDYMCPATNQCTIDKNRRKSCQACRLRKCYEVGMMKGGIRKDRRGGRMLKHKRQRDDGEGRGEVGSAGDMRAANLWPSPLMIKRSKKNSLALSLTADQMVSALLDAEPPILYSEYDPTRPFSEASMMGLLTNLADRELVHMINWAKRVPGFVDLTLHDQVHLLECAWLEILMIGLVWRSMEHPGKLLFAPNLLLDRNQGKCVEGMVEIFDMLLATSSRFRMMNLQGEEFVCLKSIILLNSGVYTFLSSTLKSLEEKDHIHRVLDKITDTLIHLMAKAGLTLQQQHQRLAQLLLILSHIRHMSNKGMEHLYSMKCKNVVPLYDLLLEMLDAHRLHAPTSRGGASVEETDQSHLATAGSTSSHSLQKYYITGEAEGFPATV

## Cc1cc(O)ccc1Cl [ClCH3Ph, 4-chloro, 3-methyl phenol]
ERRβ
  ΔTm at 100 µM: 0.2 °C
[1]; 100 μM test compound
  ΔTm, thermal stabilization of ERRγ: 3.9 °C
[1]; pH 8, read-out: ΔTm, thermal stabilization of ERRγ, 100 μM test compound
  ΔTm at 100 µM: 4 to 5.7 °C
ERα; calculated at reference temperature 25 °C from ΔTm of Table II, ΔHu 112 kcal/mol, read-out: Estimated dissociation constant, ERα
  Kd: 37.3 µM
ERα; pH 8, read-out: ΔTm, thermal stabilization of ERα
  ΔTm at 100 µM: 0.4 °C

Source: patent US7655756B2 (Johnson & Johnson Pharmaceutical Research & Development, LLC, priority 2005, dated 2010)
